Results as given in ChEMBL document CHEMBL5230129, “Antibacterial activities with the structure-activity relationship of coumarin derivatives” (2020).
Converted amounts (≈) assume the structure as drawn.

Columns and labels:
Assay type in all cases: functional
Staphylococcus aureus = assay: Antibacterial activity against Staphylococcus aureus assessed as zone of inhibition incubated for 24 hrs by agar diffusion assay
Proteus vulgaris = assay: Antibacterial activity against Proteus vulgaris assessed as zone of inhibition incubated for 24 hrs by agar diffusion assay
Bacillus subtilis = assay: Antibacterial activity against Bacillus subtilis assessed as zone of inhibition incubated for 24 hrs by agar diffusion assay
Escherichia coli = assay: Antibacterial activity against Escherichia coli assessed as inhibition of bacterial growth

SMILES: O=C(/C=C/c1cc(/N=N\c2ccc(Cl)cc2)ccc1O)c1cc2ccccc2oc1=O
- inhibition zone (IZ) (Staphylococcus aureus): >17 mm
- inhibition zone (IZ) (Proteus vulgaris): >17 mm
- inhibition zone (IZ) (Bacillus subtilis): >17 mm

SMILES: COc1ccc(C(=O)C(c2c(O)c3ccccc3oc2=O)N2CCCCC2)cc1 (centres undefined)
- MIC (Escherichia coli): 6.25 µg/mL (≈ 15.9 µM)
